Laboratory results taken from patent US8318954B2, “Cleavable carnitine compound” (Nou Life Sciences, Inc., priority 2006, dated 2012).

Assays:
Format in all cases: in vivo
C. elegans [1] = assay: Thermal avoidance (TAV) 3 step dose response testing; settings: for effects indicating increased sensory sensitivity: 0%, 6%, 12% laser intensity
Excerpt: The present invention includes a series of compounds that may be useful for increasing sensory neuron function in certain human neuropathological conditions. C. elegans contains a number of sensory neurons which are responsible for detecting a variety of external stimuli. One such stimulus (heat) can be detected and quantified in C. elegans by the use of thermal avoidance (TAV) technology available through NemaRx. The goal of this experiment was to provide an initial characterization of the compounds via TAV. Specifically, it was asked whether any of these compounds can lead to an increase in the thermal stimulus-induced behavioral response measured by TAV. N2 strain C. elegans animals were used for this project, which have ‘normal’, i.e. wildtype, sensory neuron function. Four compounds were received by NemaRx for TAV testing. These compounds were:
(§1) One 24 well microtiter plate was set up and incubated overnight on the shaker at 20 C. Each well on the plate was set up with 600 L3/L4-stage N2 animals in NGM with a 1:20 dilution of concentrated HB101 E. coli (food source) in a volume of 300 μl. Before the animal/HB101 solution was added, test compounds were pipetted into wells. For water controls and compound stocks/dilutions in water (DHLA, NAC) 6 μl was added to each well (1:50 dilutions). For DMSO controls and compound stocks/dilutions in DMSO (LA) 3 μl was added to each well (1:100 dilutions). No OD620 measurements were taken but the animals were visually scored after 19 h incubation.
Dose Responses—setup: All of the wells from the 24 well plate were used for dose response testing and the entire well contents (600 animals) were used for each test. Prior to being placed on the agar plate for TAV testing each sample was processed as follows: • sample were transferred to glass tube containing 7 ml PBS • animals were allowed to settle for 5 minutes before most of the supernatant was removed (approx. 0.5 ml remaining in tube) • 7 ml PBS was then added, mixed and animals were allowed to settle for 5 minutes most of the supernatant was then removed • animals were removed and transferred to TAV testing plate (NRx Application pattern A) • plate was allowed to dry for 10 minutes (plate cover removed) and TAV testing was initiated. Per plate settings for the dose response experiments were as follows:
Dose Responses—general notes on analysis: A response of the animals to a thermal stimulus (laser) which is applied to the head region can be detected both by a change in the direction of movement, as well as by a change in speed occurring within the test interval where the stimulus is applied. • direction of movement. […] Animals that show a strong change in the direction of movement, i.e. reversals, are classified as LR5 responders. […] LR5 responders show a thermal intensity-dependent increase in the speed of movement (starting off with less than <prelaser speed at low intensities up to > pre-laser speed at high intensities)
The dose response experiments for the current project were carried out with 0% (background control), 6% and 12% settings of laser intensity. In practice, 6% is on the edge of laser intensity required to detect an increase in the number of LR5 responders. As such, 6% should be a useful intensity-setting to detect compound-induced increased sensitivity in the animals. The 12% setting was chosen because this intensity typically gives a robust increase in the number of LR5 responders.
Total Responder speeds, ‘LR1 Responder speeds’ and ‘LR5 Responder speeds’ are shown as normalized speeds to allow better comparison between samples. For normalization purposes the average pre-laser speed is set at 1.0 and responder speeds are calculated relative to this value.
One 24 well microtiter plate was set up and incubated overnight on the shaker at 20° C. Each well on the plate was set up with 600 L3/L4-stage N2 animals in NGM with a 1:20 dilution of concentrated HB101 E. coli (food source) in a volume of 300 μl. […]

C. elegans [2] = assay: Thermal avoidance (TAV) single intensity testing (6% laser intensity)
Procedure: (§2) One 24 well microtiter plate was set up and incubated overnight on the shaker at 20° C. Each well on the plate was set up with 600 L3/L4-stage N2 animals in NGM with a 1:20 dilution of concentrated HB101 E. coli (food source) in a volume of 300 μl. Before the animal/HB101 solution was added, test compounds were pipetted into wells. 3 μl each for the DMSO controls and LA dilutions were added to each well (1:100 dilutions). Controls and LA dilutions were done in triplicate (total of 9 wells).
6% Response tests—setup: All 9 wells from the 24 well plate were used for 6% testing and the entire well contents (600 animals) were used for each test. Prior to being placed on the agar plate for TAV testing each sample was processed as described for ‘Dose Responses’.
Dose Responses—general notes on analysis: Analysis similar as described in ‘Dose Responses’. In addition, ‘Response ratios’ as well as ‘A Speed responses’ both give measures of how much individual animals changed speed in response to the stimulus (additional information available upon request).
as §2, with “wells. 6” for “wells. 3”, “the water” for “the DMSO”, “and compound” for “and LA”, “well (1:50” for “well (1:100”, “of 15” for “of 9”
6% Response tests—setup: All 15 wells from the 24 well plate were used for 6% testing) and the entire well contents (600 animals) were used for each test. Prior to being placed on the agar plate for TAV testing each sample was processed as described for ‘Dose Responses’.
as §2, with “LC” for “LA”

C. elegans [3] = assay: Visual scoring of C. elegans after overnight incubation with compound in 24 well plate; settings: for visual scoring of well clearance: L3/L4-stage N2 animals
Procedure: as §1
as §1, with “at 20°” for “at 20”, “For” for “For water controls and compound stocks/dilutions in water (DHLA, NAC) 6 μl was added to each well (1:50 dilutions). For”, “DMSO (LC)” for “DMSO (LA)”, “h incubation).” for “h incubation.”
as §1, with “at 20°” for “at 20”, “For” for “For water controls and compound stocks/dilutions in water (DHLA, NAC) 6 μl was added to each well (1:50 dilutions). For”, “DMSO (LC)” for “DMSO (LA)”, “after 22” for “after 19”, “h incubation).” for “h incubation.”

[4] = even at highest concentration 2 mM (LC)

Q: Which results are given for “Acetyl-L-Carnitine-Lipoic acid conjugate [LC Conjugate]”?
A: effects indicating increased sensory sensitivity (C. elegans [1]; [4]): No obvious effects detected; effects indicating increased sensory sensitivity (C. elegans [2]; [4]): No obvious effects detected; visual scoring (toxicity) (C. elegans [3]; LC, 22 h incubation): no toxicity observed; visual scoring (toxicity) (C. elegans [3]; all LC dilutions LC1-LC6 (up to 2 mM), 19 h incubation): no toxicity observed

Q: For `O=C(O)CCCCC1CCSS1` (centres unmarked) [LA, Lipoic acid], which “effects indicating increased sensory sensitivity” value (C. elegans [1]; even at highest non-toxic concentration of 2 mM) is on record?
A: No obvious effects detected

Q: And the “speed of LR1 responders” value (C. elegans [1]; LA3 dilution)?
A: relatively low

Q: And the “percentage of LR5 responders” value (C. elegans [1]; dilutions LA4, LA5 and LA6, similar to the last DMSO control)?
A: relatively high

Q: What about the “toxicity evident from 'Frames viewed' and 'Average Speeds'” value (C. elegans [1]; two highest LA concentrations (LA1, LA2)) of the same compound?
A: toxicity is observed

Q: What about the “effects indicating increased sensory sensitivity” value (C. elegans [2]; 2 mM or 1 mM) of the same compound?
A: No effects detected

Q: And the “visual scoring of well clearance” value (C. elegans [3]; LA1, 10 mM final concentration in well, 19 h incubation)?
A: most bacteria remaining

Q: And the “visual scoring of well clearance” value (C. elegans [3]; LA2, 5 mM final concentration in well, 19 h incubation)?
A: some bacteria remaining
